# Measurements: US9266876B2 (Actelion Pharmaceuticals Ltd., priority 2012, dated 2016)
# Like-named read-outs stand apart in the source and are kept apart here.
# Key:
# CXCR3 = CXCR3 (Homo sapiens (Human), UniProt P49682); assay: Receptor internalization assay; format: cell-based; settings: read-out: Internalization IC50
# In short: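 In human whole blood, compounds were incubated with CXCL10 (9 nM final) for 30 min at 37 °C to drive receptor internalization, then stained with anti-CXCR3/CD3 antibodies and lysed of red cells. Flow cytometry measured mean surface CXCR3 fluorescence on CD3+ cells, and IC50 came from single-site dose-response fits.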
# human CXCR3A = human CXCR3A (Homo sapiens (Human), UniProt P49682); assay: FLIPR assay; format: cell-based; settings: CHO-K1 cells expressing the human CXCR3A coupled to Galpha(16); CXCL10 agonist 20 nM; Fluo-4-AM fluorescence; mean values if determined several times
# In short: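 CHO-K1 cells expressing CXCR3A coupled to Gα16 were loaded with Fluo-4-AM for 1 h in Hepes-buffered HBSS, pH 7.4, with 5 mM probenecid. Compound dilutions were added on the FLIPR, followed by CXCL10 (added as a 20 nM solution). Baseline-subtracted peak fluorescence was fitted to a single-site curve for IC50.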
# [1] = human whole blood, final CXCL10 concentration 9 nM, 30 min 37° C., CXCR3 cell surface expression on CD3 positive cells, flow cytometer
# Sequence of human CXCR3A (P49682 whole entry): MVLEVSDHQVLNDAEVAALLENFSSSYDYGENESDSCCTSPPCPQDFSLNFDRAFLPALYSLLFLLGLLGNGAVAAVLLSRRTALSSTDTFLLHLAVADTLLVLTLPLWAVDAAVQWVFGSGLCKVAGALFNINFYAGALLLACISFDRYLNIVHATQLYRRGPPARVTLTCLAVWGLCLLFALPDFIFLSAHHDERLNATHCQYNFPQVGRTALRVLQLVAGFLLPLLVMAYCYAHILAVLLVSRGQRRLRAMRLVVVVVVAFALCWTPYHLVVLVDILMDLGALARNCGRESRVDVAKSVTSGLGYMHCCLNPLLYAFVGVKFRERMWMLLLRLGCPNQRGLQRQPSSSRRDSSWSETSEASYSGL
# Sequence of CXCR3 (P49682 whole entry): as above
compound,measurement,setting,value
"Cc1ncnn1CC(=O)N1CCN(c2sc(C(F)(F)F)nc2-c2nc3ccccc3[nH]2)C[C@H]1C [Example 212, 1-{(R)-4-[4-(1H-Benzoimidazol-2-yl)-2-trifluoromethyl-thiazol-5-yl]-2-methyl-piperazin-1-yl}-2-(5-methyl-[1,2,4]triazol-1-yl)-ethanone]",IC50,CXCR3; [1],0.737 µM
same,IC50,human CXCR3A,0.004 µM
"Cc1ncn(CC(=O)N2CCN(c3sc(C(F)(F)F)nc3-c3nc4ccccc4[nH]3)C[C@H]2C)n1 [Example 213, 1-{(R)-4-[4-(1H-Benzoimidazol-2-yl)-2-trifluoromethyl-thiazol-5-yl]-2-methyl-piperazin-1-yl}-2-(3-methyl-[1,2,4]triazol-1-yl)-ethanone]",IC50,CXCR3; [1],0.373 µM
same,IC50,human CXCR3A,0.001 µM
"Cc1nn(CC(=O)N2CCN(c3sc(C(F)(F)F)nc3-c3nc4ccccc4[nH]3)C[C@H]2C)c(C)c1CN(C)C [Example 214, 1-{(R)-4-[4-(1H-Benzoimidazol-2-yl)-2-trifluoromethyl-thiazol-5-yl]-2-methyl-piperazin-1-yl}-2-(4-dimethylaminomethyl-3,5-dimethyl-pyrazol-1-yl)-ethanone]",IC50,CXCR3; [1],0.072 µM
same,IC50,human CXCR3A,0.002 µM
"C[C@@H]1CN(c2sc(C(F)(F)F)nc2-c2nc3ccccc3[nH]2)CCN1C(=O)Cn1cc2c(n1)CCN(C)C2 [Example 215, 1-{(R)-4-[4-(1H-Benzoimidazol-2-yl)-2-trifluoromethyl-thiazol-5-yl]-2-methyl-piperazin-1-yl}-2-(5-methyl-4,5,6,7-tetrahydro-pyrazolo[4,3-c]pyridin-2-yl)-ethanone]",IC50,CXCR3; [1],0.271 µM
same,IC50,human CXCR3A,0.002 µM
"C[C@@H]1CN(c2sc(C(F)(F)F)nc2-c2nc3ccccc3[nH]2)CCN1C(=O)Cn1ncc2c1CCN(C)C2 [Example 216, 1-{(R)-4-[4-(1H-Benzoimidazol-2-yl)-2-trifluoromethyl-thiazol-5-yl]-2-methyl-piperazin-1-yl}-2-(5-methyl-4,5,6,7-tetrahydro-pyrazolo[4,3-c]pyridin-1-yl)-ethanone]",IC50,CXCR3; [1],0.09 µM
same,IC50,human CXCR3A,0.002 µM
"C[C@@H]1CN(c2sc(C(F)(F)F)nc2-c2nc3ccccc3[nH]2)CCN1C(=O)CN1CCc2[nH]ncc2C1 [Example 217, 1-{(R)-4-[4-(1H-Benzoimidazol-2-yl)-2-trifluoromethyl-thiazol-5-yl]-2-methyl-piperazin-1-yl}-2-(1,4,6,7-tetrahydro-pyrazolo[4,3-c]pyridin-5-yl)-ethanone]",IC50,CXCR3; [1],5.01 µM
same,IC50,human CXCR3A,0.021 µM
"Cc1nc(CN(C)C)nn1CC(=O)N1CCN(c2sc(C(F)(F)F)nc2-c2nc3ccccc3[nH]2)C[C@H]1C [Example 218, 1-{(R)-4-[4-(1H-Benzoimidazol-2-yl)-2-trifluoromethyl-thiazol-5-yl]-2-methyl-piperazin-1-yl}-2-(3-dimethylaminomethyl-5-methyl-[1,2,4]triazol-1-yl)-ethanone]",IC50,CXCR3; [1],0.54 µM
same,IC50,human CXCR3A,0.008 µM
Cc1cc(CC(=O)N2CCN(c3sc(C(F)(F)F)nc3-c3nc4ccccc4[nH]3)C[C@H]2C)cc(C)n1 [Example 219],IC50,CXCR3; [1],1.46 µM
same,IC50,human CXCR3A,0.004 µM
Cc1cc(C)nc(CC(=O)N2CCN(c3sc(C(F)(F)F)nc3-c3nc4ccccc4[nH]3)C[C@H]2C)c1 [Example 220],IC50,CXCR3; [1],2.62 µM
same,IC50,human CXCR3A,0.019 µM
"C[C@@H]1CN(c2sc(C(F)(F)F)nc2-c2nc3ccccc3[nH]2)CCN1C(=O)Cn1cc(C2CCNCC2)cn1 [Example 221, 1-{(R)-4-[4-(1H-Benzoimidazol-2-yl)-2-trifluoromethyl-thiazol-5-yl]-2-methyl-piperazin-1-yl}-2-(4-piperidin-4-yl-pyrazol-1-yl)-ethanone]",IC50,CXCR3; [1],1.09 µM
same,IC50,human CXCR3A,0.006 µM
"C[C@@H]1CN(c2sc(C(F)(F)F)nc2-c2nc3ccccc3[nH]2)CCN1C(=O)Cn1cc(C2CCN(C)CC2)cn1 [Example 222, 1-{(R)-4-[4-(1H-Benzoimidazol-2-yl)-2-trifluoromethyl-thiazol-5-yl]-2-methyl-piperazin-1-yl}-2-[4-(1-methyl-piperidin-4-yl)-pyrazol-1-yl]-ethanone]",IC50,CXCR3; [1],1.5 µM
same,IC50,human CXCR3A,0.016 µM
"C[C@@H]1CN(c2sc(CN(C)C)nc2-c2nc3ccccc3[nH]2)CCN1C(=O)Cn1cnc2cccnc21 [Example 223, 1-{(R)-4-[4-(1H-Benzoimidazol-2-yl)-2-dimethylaminomethyl-thiazol-5-yl]-2-methyl-piperazin-1-yl}-2-imidazo[4,5-b]pyridin-3-yl-ethanone]",IC50,CXCR3; [1],1.13 µM
same,IC50,human CXCR3A,0.027 µM
"C[C@@H]1CN(c2sc(CO)nc2-c2nc3ccccc3[nH]2)CCN1C(=O)Cn1cnc2cccnc21 [Example 225, 1-{(R)-4-[4-(1H-Benzoimidazol-2-yl)-2-hydroxymethyl-thiazol-5-yl]-2-methyl-piperazin-1-yl}-2-imidazo[4,5-b]pyridin-3-yl-ethanone]",IC50,CXCR3; [1],3.46 µM
same,IC50,human CXCR3A,0.054 µM
"O=C(Cn1cnc2cccnc21)N1CCN(c2sc(C(F)(F)F)nc2-c2nc3ccccc3[nH]2)CC1 [Example 226, 1-{4-[4-(1H-Benzoimidazol-2-yl)-2-trifluoromethyl-thiazol-5-yl]-piperazin-1-yl}-2-imidazo[4,5-b]pyridin-3-yl-ethanone]",IC50,CXCR3; [1],0.363 µM
same,IC50,human CXCR3A,0.001 µM
"Cc1nc(C)n(CC(=O)N2CCN(c3sc(C(F)(F)F)nc3-c3nc4ccccc4[nH]3)C[C@H]2CN(C)C)n1 [Example 227, 1-{(R)-4-[4-(1H-Benzoimidazol-2-yl)-2-trifluoromethyl-thiazol-5-yl]-2-dimethylaminomethyl-piperazin-1-yl}-2-(3,5-dimethyl-[1,2,4]triazol-1-yl)-ethanone]",IC50,CXCR3; [1],0.069 µM
same,IC50,human CXCR3A,0.008 µM
"CN(C)C[C@@H]1CN(c2sc(C(F)(F)F)nc2-c2nc3ccccc3[nH]2)CCN1C(=O)Cn1cnc2cccnc21 [Example 228, 1-{(R)-4-[4-(1H-Benzoimidazol-2-yl)-2-trifluoromethyl-thiazol-5-yl]-2-dimethylaminomethyl-piperazin-1-yl}-2-imidazo[4,5-b]pyridin-3-yl-ethanone]",IC50,CXCR3; [1],0.012 µM
same,IC50,human CXCR3A,0.004 µM
"CN(C)C[C@@H]1CN(c2scnc2-c2nc3ccccc3[nH]2)CCN1C(=O)Cn1cnc2cccnc21 [Example 229, 1-{(R)-4-[4-(1H-Benzoimidazol-2-yl)-thiazol-5-yl]-2-dimethylaminomethyl-piperazin-1-yl}-2-imidazo[4,5-b]pyridin-3-yl-ethanone]",IC50,CXCR3; [1],0.098 µM
same,IC50,human CXCR3A,0.001 µM
"Cc1nc(C)n(CC(=O)N2CCN(c3sc(C(F)(F)F)nc3-c3nc4c(F)cccc4[nH]3)C[C@H]2C)n1 [Example 230, 2-(3,5-Dimethyl-[1,2,4]triazol-1-yl)-1-{(R)-4-[4-(4-fluoro-1H-benzoimidazol-2-yl)-2-trifluoromethyl-thiazol-5-yl]-2-methyl-piperazin-1-yl}-ethanone]",IC50,CXCR3; [1],0.139 µM
same,IC50,human CXCR3A,0.001 µM
"Cc1nc(C)n(CC(=O)N2CCN(c3sc(C(F)(F)F)nc3-c3nc4c(F)c(F)ccc4[nH]3)C[C@H]2C)n1 [Example 231, 1-{(R)-4-[4-(4,5-Difluoro-1H-benzoimidazol-2-yl)-2-trifluoromethyl-thiazol-5-yl]-2-methyl-piperazin-1-yl}-2-(3,5-dimethyl-[1,2,4]triazol-1-yl)-ethanone]",IC50,CXCR3; [1],0.332 µM
same,IC50,human CXCR3A,0.001 µM
"Cc1nc(C)n(CC(=O)N2CCN(c3sc(C(F)(F)F)nc3-c3nc4c(C(F)(F)F)cccc4[nH]3)C[C@H]2C)n1 [Example 232, 2-(3,5-Dimethyl-[1,2,4]triazol-1-yl)-1-{(R)-2-methyl-4-[2-trifluoromethyl-4-(4-trifluoromethyl-1H-benzoimidazol-2-yl)-thiazol-5-yl]-piperazin-1-yl}-ethanone]",IC50,CXCR3; [1],0.494 µM
same,IC50,human CXCR3A,0.007 µM
"Cc1nc(C)n(CC(=O)N2CCN(c3sc(C(F)(F)F)nc3-c3nc4ccc(N5CCOCC5)cc4[nH]3)C[C@H]2C)n1 [Example 233, 2-(3,5-Dimethyl-[1,2,4]triazol-1-yl)-1-{(R)-2-methyl-4-[4-(6-morpholin-4-yl-1H-benzoimidazol-2-yl)-2-trifluoromethyl-thiazol-5-yl]-piperazin-1-yl}-ethanone]",IC50,CXCR3; [1],0.376 µM
same,IC50,human CXCR3A,0.006 µM
"Cc1nc(C)n(CC(=O)N2CCN(c3sc(C(F)(F)F)nc3-c3nc4ccc(-n5cncn5)cc4[nH]3)C[C@H]2C)n1 [Example 234, 2-(3,5-Dimethyl-[1,2,4]triazol-1-yl)-1-{(R)-2-methyl-4-[4-(6-[1,2,4]triazol-1-yl-1H-benzoimidazol-2-yl)-2-trifluoromethyl-thiazol-5-yl]-piperazin-1-yl}-ethanone]",IC50,CXCR3; [1],0.822 µM
same,IC50,human CXCR3A,0.006 µM
"Cc1nc(C)n(CC(=O)N2CCN(c3sc(C(F)(F)F)nc3-c3nc4ccc(-c5noc(C)n5)cc4[nH]3)C[C@H]2C)n1 [Example 236, 2-(3,5-Dimethyl-[1,2,4]triazol-1-yl)-1-((R)-2-methyl-4-{4-[6-(5-methyl-[1,2,4]oxadiazol-3-yl)-1H-benzoimidazol-2-yl]-2-trifluoromethyl-thiazol-5-yl}-piperazin-1-yl)-ethanone]",IC50,CXCR3; [1],0.265 µM
same,IC50,human CXCR3A,0.003 µM
"Cc1nc(C)n(CC(=O)N2CCN(c3sc(C(F)(F)F)nc3-c3nc4ccc(C5CCN(C)CC5)cc4[nH]3)C[C@H]2C)n1 [Example 237, 2-(3,5-Dimethyl-[1,2,4]triazol-1-yl)-1-((R)-2-methyl-4-{4-[6-(1-methyl-piperidin-4-yl)-1H-benzoimidazol-2-yl]-2-trifluoromethyl-thiazol-5-yl}-piperazin-1-yl)-ethanone]",IC50,CXCR3,0.084 µM
same,IC50,human CXCR3A,0.002 µM
